# Experimental data taken from patent publication US20220387365A1, “TUCARESOL DERIVATIVES AND USES THEREOF” (BeyondSpring Pharmaceuticals, Inc., priority 2019, published 2022).
# Where two headings read alike, the source gives them in different places. Marks after values point to notes of the source that are not given here.
# Legend:
# [1] = Intravenous and oral dosing pharmacokinetic screen, plasma concentration by LC/MS/MS; design: species or system C57BL/6 mice; settings: male, C57BL/6, mouse, in vivo
# Method: Tucaresol, Compound B02, Compound C01, Compound C02-1, and Compound C02 were dosed once, by IV bolus (3 mg/kg in 20% hydroxyprophyl-13-cyclodextrin with 1 eq NaOH) or PO (10 mg/kg in 1% carboxymethylcellulose/0.1% tween-80 in water), to non-fasted male C57BL/6 mice. Animals were bled from the dorsal metatarsal vein (from the heart for 24 hour time point) for K2-EDTA plasma 0.083 (for IV only), 0.25, 0.5, 1, 2, 4, 8, and 24 hours after dosing. The plasma concentration of the dosed tucaresol or compound were measured by LC/MS/MS (I-CMS-8060 instrument for MS). PK parameters were then calculated with WinNonlin 6.1. For Compounds C01, CO2 and CO2-1, stability in C57BL/6 K2EDTA plasma was also evaluated at 22° C. over 1 hour by utilizing LC.
# [2] = tested on: MC38 tumor cells; test: Tumor volume in subcutaneous syngeneic colorectal cancer model MC38 (Example 10); type: in vivo,  mice
# Method: MC38 tumor cells were maintained in vitro with DMEM medium supplemented with 10% fetal bovine serum at 37° C. in an atmosphere of 5% CO2 in air. The cells in exponential growth phase were harvested and quantitated by cell counter before tumor inoculation. Each mouse was inoculated subcutaneously in the right lower flank with 1×10^6 MC38 tumor cells in 0.1 ml of PBS for tumor development.
# The randomization was started when the mean tumor size reached approximately 145 mm^3. 108 mice were enrolled in the study. All animals were randomly allocated to 9 study groups. Randomization by tumor volume was performed based on “Matched distribution” method/ “Stratified” method (StudyDirector™ software, version 3.1.399.19)/randomized block design.
# Tumor volumes were measured three times a week after randomization in two dimensions using a caliper, and the volume was expressed in mm^3 using the formula: V=(L×W×W)/2, where V is tumor volume, L is tumor length (the longest tumor dimension) and W is tumor width (the longest tumor dimension perpendicular to L). Dosing as well as tumor and body weight measurements were conducted in a Laminar Flow Cabinet. The body weights and tumor volumes were measured by using StudyDirector™ software (version 3.1.399.19).
# The treatment was initiated following randomization.
# Tumor growth inhibition (TGI): TGI% is an indication of antitumor activity, and expressed as: TGI (%)=100×(1−T/C). T and C are the mean tumor volume (or weight) of the treated and control groups, respectively, on a given day. Statistical analysis of the difference in mean tumor volume among the groups was conducted using the method time to survival event/euthanasia. Individual mice were euthanized when tumor volume exceeded 3000mm^3. The study was ultimately terminated at Day 36.
# To compare tumor volumes of different groups at a pre-specified day, Bartlett's test was used to check the assumption of homogeneity of variance across all groups. When the p-value of Bartlett's test was >=0.05, one-way ANOVA was runto test overall equality of means across all groups. If the p-value of the one-way ANOVA was <0.05, was performed post hoc testing by running Tukey's HSD (honest significant difference) tests for all pairwise comparisons, and Dunnett's tests for comparing each treatment group with the vehicle group. When the p-value of Bartlett's test was <0.05, was run Kruskal-Wallis test to test overall equality of medians among all groups. If the p-value the Kruskal-Wallis test was <0.05, was performed post hoc testing by running Conover's non-parametric test for all pairwise comparisons or for comparing each treatment group with the vehicle group, both with single-step p-value adjustment.
# In addition, pairwise comparisons were performed without multiple comparison correction and reported nominal/uncorrected p-values directly from Welch's t-test or Mann-Whitney U test. Specifically, Bartlett's test was used to check the assumption of homogeneity of variance for a pair of groups. When the p-value of Bartlett's test was >0.05, Welch's t-test was run, otherwise Mann-Whitney U test was run, to obtain nominal p-values. Survival curves were compared between groups by logrank (Mantel-Cox) test.
# All statistical analyses had been done in R-a language and environment for statistical computing and graphics (version 3.3.1). All tests were two-sided unless otherwise specified, and p-values of <0.05 were regarded as statistically significant.
# Kaplan-Meier plot showing percent survival of mice treated with G1 to G9. A mouse whose tumor volume exceeded 3000 mm^3 was sacrificed and scored in the Kaplan-Meier plot. Tables 13.1 and 13.2 below describes the tumor growth inhibition with data collected over 24 days. Tables 14.1 and 14.2 below describes mean body weight.
# [3] = iv, 3 mg/kg, Tucaresol concentration
# [4] = iv, 3 mg/kg, Tucaresol concentration, Mean
# [5] = po, 10 mg/kg, Tucaresol concentration
# [6] = po, 10 mg/kg, Tucaresol concentration, Mean
# [7] = iv, 3 mg/kg, Compound C02 concentration
# [8] = iv, 3 mg/kg, Compound C02 concentration, Mean
smiles,measurement,setting,value
O=Cc1c(O)cccc1OCc1ccc(C(=O)O)cc1 [Tucaresol],AUClast/D,[1],825 ng·h/mL per mg/kg
same,F,[1],75.0%
same,T1/2,[1],4.67 h
same,Tmax,[1],0.250 h
same,concentration at 0.083 h,[1]; [3],1360 ng/mL
same,concentration at 0.25 h,[1]; [3],1240 ng/mL
same,concentration at 0.5 h,[1]; [3],972 ng/mL
same,concentration at 1 h,[1]; [3],623 ng/mL
same,concentration at 2 h,[1]; [3],473 ng/mL
same,concentration at 4 h,[1]; [3],122 ng/mL
same,concentration at 8 h,[1]; [3],73.6 ng/mL
same,concentration at 24 h,[1]; [3],12 ng/mL
same,concentration at 0.083 h,[1]; [4],1890 ng/mL
same,concentration at 0.25 h,[1]; [4],1330 ng/mL
same,concentration at 0.5 h,[1]; [4],985 ng/mL
same,concentration at 1 h,[1]; [4],707 ng/mL
same,concentration at 2 h,[1]; [4],421 ng/mL
same,concentration at 4 h,[1]; [4],115 ng/mL
same,concentration at 8 h,[1]; [4],73.4 ng/mL
same,concentration at 24 h,[1]; [4],9.5 ng/mL
same,Tucaresol concentration,"[1]; po, 10 mg/kg, 8 h",164* ng/mL
same,concentration at 0.25 h,[1]; [5],2930 ng/mL
same,concentration at 0.5 h,[1]; [5],2770 ng/mL
same,concentration at 1 h,[1]; [5],1870 ng/mL
same,concentration at 2 h,[1]; [5],822 ng/mL
same,concentration at 4 h,[1]; [5],603 ng/mL
same,concentration at 8 h,[1]; [5],185 ng/mL
same,concentration at 24 h,[1]; [5],26.3 ng/mL
same,concentration at 0.25 h,[1]; [6],3040 ng/mL
same,concentration at 0.5 h,[1]; [6],2410 ng/mL
same,concentration at 1 h,[1]; [6],1750 ng/mL
same,concentration at 2 h,[1]; [6],881 ng/mL
same,concentration at 4 h,[1]; [6],614 ng/mL
same,concentration at 8 h,[1]; [6],190 ng/mL
same,concentration at 24 h,[1]; [6],26 ng/mL
same,concentration at 8 h,"[1]; Tucaresol PO 10 mg/kg, 8 h, single mice, read-out: Tucaresol concentration",222 ng/mL
O=Cc1c(OCc2ccc(C(=O)O)cc2)cccc1OC1O[C@H](CO)[C@@H](O)[C@H](O)[C@H]1O (stereo partly drawn) [Compound C02],antitumor efficacy of the combination (in words),"[2]; 20 mg/kg C02 (Group 4) against anti-PD1 alone (Group 3), FIG. 5A",significantly increased the antitumor efficacy of anti-PDA1 administered alone
same,Mean Tumor Volumes,[2]; Day 1,145 ± 5.46 mm^3
same,Mean Tumor Volumes,[2]; Day 4,215.49 ± 15.14 mm^3
same,Mean Tumor Volumes,[2]; Day 8,590.08 ± 59.54 mm^3
same,Mean Tumor Volumes,[2]; Day 10,1048.2 ± 89.19 mm^3
same,Mean Tumor Volumes,[2]; Day 12,1750.55 ± 154.11 mm^3
same,Mean Tumor Volumes,[2]; Day 15,2847.19 ± 242.97 mm^3
same,AUClast/D,[1],947 ng·h/mL per mg/kg
same,T1/2,[1],3.94 h
same,Tmax,[1],0.500 h
same,"Tucaresol concentration, Mean","[1]; iv, 3 mg/kg, 0.083 h",28.3 ng/mL
same,"Tucaresol concentration, Mean","[1]; iv, 3 mg/kg, 0.25 h",128 ng/mL
same,"Tucaresol concentration, Mean","[1]; iv, 3 mg/kg, 0.5 h",165 ng/mL
same,"Tucaresol concentration, Mean","[1]; iv, 3 mg/kg, 1 h",123 ng/mL
same,"Tucaresol concentration, Mean","[1]; iv, 3 mg/kg, 2 h",114 ng/mL
same,"Tucaresol concentration, Mean","[1]; iv, 3 mg/kg, 4 h",76.1 ng/mL
same,"Tucaresol concentration, Mean","[1]; iv, 3 mg/kg, 8 h",37.1 ng/mL
same,concentration at 0.083 h,[1]; [7],1830 ng/mL
same,concentration at 0.25 h,[1]; [7],537 ng/mL
same,concentration at 0.083 h,[1]; [8],2390 ng/mL
same,concentration at 0.25 h,[1]; [8],578 ng/mL
same,concentration at 0.5 h,[1]; [8],220 ng/mL
same,"Tucaresol concentration, Mean","[1]; po, 10 mg/kg, 0.25 h",972 ng/mL
same,"Tucaresol concentration, Mean","[1]; po, 10 mg/kg, 0.5 h",1398 ng/mL
same,"Tucaresol concentration, Mean","[1]; po, 10 mg/kg, 1 h",915 ng/mL
same,"Tucaresol concentration, Mean","[1]; po, 10 mg/kg, 2 h",532 ng/mL
same,"Tucaresol concentration, Mean","[1]; po, 10 mg/kg, 4 h",390 ng/mL
same,"Tucaresol concentration, Mean","[1]; po, 10 mg/kg, 8 h",241 ng/mL
same,"Tucaresol concentration, Mean","[1]; po, 10 mg/kg, 24 h",12.3 ng/mL
same,concentration at 0.5 h,"[1]; po, 10 mg/kg, C02 concentration",59.1 ng/mL
